Patent publication US9040637B2, “Manganese comprising nanostructures” (SPAGO IMAGING AB, priority 2011, dated 2015)

Experiments:
Format in all cases: physicochemical
[1] = Relaxivity (r1, r2) measurement at 1.91 T (81.33 MHz); details: in H2O @ 25 C.
Description: Furthermore, the effect of a compound on the T1 is given as the relaxivity so a high relaxivity gives a stronger signal enhancement. The relaxivity (r) is frequency dependent in a structure dependent way which complicates the comparison of data from the literature from different sources. The clinical MRI scanners usually have a magnetic field of 1.5 or 3 Tesla so we have measured our relaxivities at 1.91 T, corresponding to a proton resonance frequency of 81.3 MHz, as a reasonable compromise. Measurements may also be done at other frequencies, such as 60 MHz. The relaxivity for the commercially available gadolinium based contrast agents are close to 4/mMGd/s at the clinically relevant fields.

[2] = Complexometric stability test (equimolar EDTA) evaluated by relaxometry; details: 1 mM Mn standard + equimolar EDTA, pH 7±0.5, 60 MHz, 37° C.
Experimental: Measure the longitudinal relaxivity of a nanostructure solution (r1(ns)) having a concentration of 1 mM Mn. Prepare another nanostructure solution containing 1 mM Mn and add an equivalent molar amount of EDTA. The pH of this solution must be adjusted to pH 7±0.5, if necessary. Measure the longitudinal relaxivity of this nanostructure solution with added EDTA (r1(ns+EDTA)). As a reference material, 1 mM solution using a Manganese Standard for AAS (Fluka 77036) is prepared, added an equimolar amount of EDTA, and pH adjusted to pH 7±0.5. The longitudinal relaxivity is measured (r1(Mn+EDTA)) and resulted to a value of 1.6 mM^−1s^−1. To calculate the % Mn-released from the nanostructure after addition of equivalent EDTA:
[formula] Note: Relaxation (T1, in seconds) is measured using the Minispec mq60 NMR analyzer (60 MHz) at 37° C. and relaxivity r1 is calculated using:
[formula] where T1 H2O=[…]; c1=1 mM.

[3] = Hydrodynamic diameter by dynamic light scattering (DLS), volume average; details: aqueous solution
Experimental: The term “DLS” as used herein is an acronym for dynamic light scattering, a particle sizing method, and may also be referred to as Photon Correlation Spectroscopy or Quasi-Elastic Light Scattering. The DLS sizes given as stated in the text and in the claims, if nothing else is specified, refers to the position of the maximum of the volume average peak for a sample measured at 25° C. in neutral aqueous solution with an ionic strength corresponding to 150 mM NaCl.
The hydrodynamic diameter referred to, is the diameter of the equivalent hard sphere as calculated from the diffusion coefficient, according to the Stokes-Einstein equation. The diffusion coefficient is in turn calculated from the time dependent light scattering data obtained by the Dynamic Light Scattering (DLS) technique. As a comparison, bovine serum albumin is measured to have a hydrodynamic diameter of 6.5 nm by DLS in aqueous solution, very much in agreement with the crystal structure. Depending on whether the number average, volume average, or scattered intensity average is used, the values may be somewhat different. […] The average diameters referred to in this text refers to volume averages.

**Q.** With `[Cl][Mn][Cl]` [MnCl2] as the compound, how does the r1 [1] read?
**A.** 5.8

**Q.** With Mn+EDTA as the compound, how does the “longitudinal relaxivity r1(Mn+EDTA)” value [2] read?
**A.** 1.6 mM⁻¹ s⁻¹

**Q.** Which “hydrodynamic diameter by DLS” value [3] does the source give for “bovine serum albumin: size comparison for DLS” here?
**A.** 6.5 nm
